From article PMC7180572, “5-Alkylamino-N-phenylpyrazine-2-carboxamides: Design, Preparation, and Antimycobacterial Evaluation” (Molecules, 2020)
≈ marks a conversion by molar mass, not a printed value. Where two headings read alike, the source gives them in different places.

Experiments:
[1] = system: Staphylococcus aureus spp.aureus ATCC 29213, CCM 4223; experiment: Antibacterial microdilution broth method (EUCAST); format: cell-based; conditions: read-out: MIC SA
[2] = system: Staphylococcus aureus methicillin resistant ATCC 43300, CCM 4750; experiment: microbe, parasite or virus in culture; format: cell-based; conditions: ATCC 43300 / CCM 4750 / MRSA, read-out: MIC MRSA
[3] = system: Absidia corymbifera CCM 8077 (Lichtheimia corymbifera); experiment: Antifungal microdilution broth method (EUCAST); format: cell-based; conditions: read-out: MIC AC
[4] = system: Candida albicans ATCC 24433, CCM 8320; experiment: Antifungal microdilution broth method (EUCAST); format: cell-based
[5] = system: Candida parapsilosis ATCC 22019, CCM 8260; experiment: Antifungal microdilution broth method (EUCAST); format: cell-based; conditions: Lodderomyces parapsilosis
[6] = system: Acinetobacter baumanii ATCC 19606, DSM 30007; experiment: Antibacterial microdilution broth method (EUCAST); format: cell-based; conditions: Acinetobacter baumannii
[7] = system: Mycobacterium aurum DSM 43999 (ATCC 23366); experiment: Microdilution broth, modified Microplate Alamar Blue Assay, whole cell growth inhibition; format: cell-based; conditions: Mycolicibacterium aurum, read-out: MIC Mycobacterium aurum
[8] = system: Escherichia coli ATCC 25922, CCM 3954; experiment: Antibacterial microdilution broth method (EUCAST); format: cell-based; conditions: read-out: MIC EC
HepG2 cells = experiment: HepG2 cytotoxicity, CellTiter 96 (MTS) assay; format: cell-based, human; conditions: for IC50: Homo sapiens, HepG2, 24 h, read-out: HepG2 IC50; for SI, selectivity index: IC50 (HepG2)/MIC against Mtb H37Ra (in µM)
[9] = system: Aspergillus flavus CCM 8363; experiment: Antifungal microdilution broth method (EUCAST); format: cell-based; conditions: read-out: MIC AFla
[10] = system: M. avium ssp. avium CNCTC My 80/72 (ATCC 15769); experiment: 96 well plate microdilution broth method with Alamar Blue; format: cell-based; conditions: Mycobacterium avium, ATCC15769, pH 6.6, read-out: MIC Mycobacterium avium
[11] = system: Mycobacterium tuberculosis H37Ra ITM-M006710 (ATCC 9431); experiment: Microdilution broth, modified Microplate Alamar Blue Assay, whole cell growth inhibition; format: cell-based; conditions: Mycobacterium tuberculosis, read-out: MIC Mtb H37Ra
[12] = system: Mycobacterium smegmatis DSM 43465 (ATCC 607); experiment: as above; format: cell-based; conditions: Mycolicibacterium smegmatis, read-out: MIC Mycobacterium smegmatis
[13] = system: Klebsiella pneumoniae ATCC 10031, CCM 4415; experiment: Antibacterial microdilution broth method (EUCAST)
[14] = system: Trichophyton interdigitale ATCC 9533, CCM 8377; experiment: Antifungal microdilution broth method (EUCAST); format: cell-based; conditions: read-out: MIC TI
[15] = system: Pseudomonas aeruginosa ATCC 27853, CCM 3955; experiment: Antibacterial microdilution broth method (EUCAST); format: cell-based; conditions: read-out: MIC PA
[16] = system: M. kansasii CNCTC My 235/80 (ATCC 12478); experiment: 96 well plate microdilution broth method with Alamar Blue; format: cell-based; conditions: Mycobacterium kansasii, ATCC12478, pH 6.6, read-out: MIC Mycobacterium kansasii
[17] = system: Staphylococcus epidermidis ATCC 12228, CCM 4418; experiment: Antibacterial microdilution broth method (EUCAST); format: cell-based; conditions: read-out: MIC SE
[18] = system: Enterococcus faecalis ATCC 29212, CCM 4224; experiment: Antibacterial microdilution broth method (EUCAST); format: cell-based; conditions: read-out: MIC EF
[19] = system: Candida tropicalis ATCC 750, CCM 8264; experiment: Antifungal microdilution broth method (EUCAST); format: cell-based; conditions: read-out: MIC CT
[20] = system: Aspergillus fumigatus ATCC 204305; experiment: Antifungal microdilution broth method (EUCAST); format: cell-based; conditions: read-out: MIC AF
[21] = system: Candida krusei ATCC 6258, CCM 8271; experiment: Antifungal microdilution broth method (EUCAST); format: cell-based; conditions: Pichia kudriavzevii
[22] = in vitro, Middlebrook 7H9 broth, resazurin

CCCCCCNc1cnc(C(=O)Nc2ccc(C)cc2)cn1 [Compound 4d, 5-(Hexylamino)-N-(p-tolyl)pyrazine-2-carboxamide]
MIC ([1]; 24 h): > 500 µM | MIC ([1]; 48 h): > 500 µM | MIC ([2]; 24 h): > 500 µM | MIC ([2]; 48 h): > 500 µM | MIC ([3]; CCM8077, 24 h): > 125 µM | MIC ([3]; CCM8077, 48 h): > 125 µM | MIC ([4]; 24 h, read-out: MIC CA): > 125 µM | MIC ([4]; 48 h, read-out: MIC CA): > 125 µM | MIC ([4]; read-out: MIC CA (Candida albicans)): > 125 µM | MIC ([5]; 24 h, read-out: MIC CP): 125 µM (≈ 39.1 µg/mL) | MIC ([5]; 48 h, read-out: MIC CP): 125 µM (≈ 39.1 µg/mL) | MIC ([5]; read-out: MIC CP (Candida parapsilosis)): 125 µM (≈ 39.1 µg/mL) | MIC ([6]; 24h): > 500 µM | MIC ([6]; 48h): > 500 µM | MIC [7]: ≥ 500 µg/mL | MIC ([8]; 24 h): > 500 µM | MIC ([8]; 48 h): > 500 µM | IC50 (HepG2 cells): > 50 µM | SI, selectivity index (HepG2 cells): >10.01 | MIC ([9]; CCM8363, 24 h): > 125 µM | MIC ([9]; CCM8363, 48 h): > 125 µM | MIC [10]: > 100 µg/mL | MIC ([11]; MIC converted to µM): 4.99 µM | MIC [11, 22]: 1.56 µg/mL | MIC [12]: ≥ 500 µg/mL | MIC KP ([13]; 24h): > 500 µM | MIC KP ([13]; 48h): > 500 µM | MIC ([14]; 72 h): > 125 µM | MIC ([14]; 120 h): > 125 µM | MIC ([15]; 72 h): > 500 µM | MIC ([15]; 120 h): > 500 µM | melting point: 163 to 164 °C | MIC [16]: 12.5 µg/mL (≈ 40 µM) | MIC ([17]; 24 h): > 500 µM | MIC ([17]; 48 h): > 500 µM | MIC ([18]; 24 h): > 500 µM | MIC ([18]; 48 h): > 500 µM | MIC ([19]; 24 h): > 125 µM | MIC ([19]; 48 h): > 125 µM | MIC ([20]; ATCC204305, 24 h): > 125 µM | MIC ([20]; ATCC204305, 48 h): > 125 µM | MIC ([21]; 24 h, read-out: MIC CK): 125 µM (≈ 39.1 µg/mL) | MIC ([21]; 48 h, read-out: MIC CK): 125 µM (≈ 39.1 µg/mL) | MIC ([21]; read-out: MIC CK (Candida krusei)): 125 µM (≈ 39.1 µg/mL)

CCCCCCCNc1cnc(C(=O)Nc2ccc(C)cc2)cn1 [Compound 4e, 5-(Heptylamino)-N-(p-tolyl)pyrazine-2-carboxamide]
MIC ([1]; 24 h): > 500 µM | MIC ([1]; 48 h): > 500 µM | MIC ([2]; 24 h): > 500 µM | MIC ([2]; 48 h): > 500 µM | MIC ([3]; CCM8077, 24 h): > 125 µM | MIC ([3]; CCM8077, 48 h): > 125 µM | MIC ([4]; 24 h, read-out: MIC CA): > 125 µM | MIC ([4]; 48 h, read-out: MIC CA): > 125 µM | MIC ([5]; 24 h, read-out: MIC CP): > 125 µM | MIC ([5]; 48 h, read-out: MIC CP): > 125 µM | MIC ([6]; 24h): > 500 µM | MIC ([6]; 48h): > 500 µM | MIC [7]: ≥ 500 µg/mL | MIC ([8]; 24 h): > 500 µM | MIC ([8]; 48 h): > 500 µM | IC50 (HepG2 cells): > 50 µM | SI, selectivity index (HepG2 cells): >20.91 | MIC ([9]; CCM8363, 24 h): > 125 µM | MIC ([9]; CCM8363, 48 h): > 125 µM | MIC [10]: > 100 µg/mL | MIC ([11]; MIC converted to µM): 2.39 µM | MIC [11, 22]: 0.78 µg/mL | MIC [12]: ≥ 500 µg/mL | MIC KP ([13]; 24h): > 500 µM | MIC KP ([13]; 48h): > 500 µM | MIC ([14]; 72 h): > 125 µM | MIC ([14]; 120 h): > 125 µM | MIC ([15]; 72 h): > 500 µM | MIC ([15]; 120 h): > 500 µM | melting point: 157.8 to 158.9 °C | MIC [16]: 12.5 µg/mL (≈ 38.3 µM) | MIC ([17]; 24 h): > 500 µM | MIC ([17]; 48 h): > 500 µM | MIC ([18]; 24 h): > 500 µM | MIC ([18]; 48 h): > 500 µM | MIC ([19]; 24 h): > 125 µM | MIC ([19]; 48 h): > 125 µM | MIC ([20]; ATCC204305, 24 h): > 125 µM | MIC ([20]; ATCC204305, 48 h): > 125 µM | MIC ([21]; 24 h, read-out: MIC CK): > 125 µM | MIC ([21]; 48 h, read-out: MIC CK): > 125 µM
